The subject of data set [1] is HCV replicon subgenomic 1b Strain N. Kind of data set: HCV replicon SEAP reporter assay, subgenomic 1b Strain N. The data set is classed as cell-based, hepatitis C virus. Particulars: 4 days. The method, then:
(§1) HCV replicon—SEAP (secreted alkaline phosphatase) cell lines have been described previously. Low passage cell stocks of cell lines stored frozen (−160° C.) were used in the assays. Serial dilutions of test compounds were made from initial stocks and each concentration plated in 96-well plates. Low passage HCV replicon-bearing cells were then trypsinized, counted and seeded into the wells. The plates were incubated at 37° C. in a CO2 incubator for 4 days. The culture supernatant was then removed from each well and heat inactivated for 30 min at 65° C. SEAP activity was measured and EC50 values calculated by comparing SEAP present in drug-treated and untreated wells. Cytotoxicity produced by compounds during screening was evaluated by MTT assay at the end of the incubation period.
(§2) Growth medium from each well was aspirated prior to the addition of lysis solution followed by vigorous pipetting. Each lysate was processed using DNase I treatment. Total RNA was eluted into orgainic carbon-free water and converted into cDNA enzymatically.
On the technique in general: A replicon is a self-replicating genome or part of one, used to study replication in cells.

Data set [2] relates to HCV replicon subgenomic 1a. Kind of data set: HCV replicon SEAP reporter assay, subgenomic 1a. To be noted: 4 days. Type of data set: cell-based, hepatitis C virus. The method, then: as §1, §2
The subject of data set [3] is HCV replicon-bearing cells (subgenomic 1b Strain N). In words: MTT cytotoxicity in HCV replicon cells, subgenomic 1b Strain N. The data set is classed as cell-based, human. Particulars: 4 days. The protocol: as §1
Data set [4] concerns HCV replicon-bearing cells (subgenomic 1a). In words: MTT cytotoxicity in HCV replicon cells, subgenomic 1a. Type of data set: cell-based, human. To be noted: 4 days. The protocol:
as §1

Data set [5] has as its system tumor cell lines. To be noted: cited from earlier work.
Data set [6] relates to KB. Particulars: cited from earlier work.
The subject of data set [7] is P388 lymphocytic leukemia. Particulars: cited from earlier work.
Data set [8] deals with isolated rat hepatocytes. Particulars: ex vivo isolated rat hepatocytes; cited from earlier work.
Data set [9] relates to proprotein convertase-1. To be noted: cited from earlier work.
The test system of data set [10] is proprotein convertase-7. To be noted: cited from earlier work.
In data set [11] the target is funin (Homo sapiens, UniProt P09958). Particulars: cited from earlier work.
Data set [12] is described as follows: in vitro. To be noted: woodchuck.
Excerpt: (§3) Woodchuck primary hepatocyte cultures and hepatic cell lines were inoculated with a cytopathogenic isolate of BVDV.
The test system of data set [13] is cytopathogenic isolate of BVDV. Kind of data set: BVDV viral yield assay in woodchuck primary hepatocytes.
Excerpt: as §3
Data set [14] deals with cytopathogenic isolate of BVDV. In words: BVDV antiviral assay in woodchuck hepatic cell line WCH-8.
Excerpt: as §3
The test system of data set [15] is HIV-1 (IIIB). To be noted: Chang et al. 1991; cited from earlier work.
In data set [16] the test system is cpBVDV isolate NADL. Kind of data set: BVDV antiviral assay in NCL bovine uterine cell line (viral-induced cell killing, viral yield). To be noted: Example 2B. The method, then: Derivatives of andrographolide were tested in an in vitro assay which measures the antiviral potential against a cytopathogenic isolate of BVDV in a permissive bovine uterine cell line.
The capacity to measure the effectiveness of compounds to reduce BVDV replication in vitro provides a system for preclinical assessment of potential drugs for treatment of viral infection and for analyzing possible mechanisms of action.
Cell lines were incubated in a humid atmosphere of 5% CO2 at 37° C. Cells were passaged by dissociation of the monolayer with a solution of trypsin-EDTA (Life Technologies), diluted in culture medium, and split 1:5 to new culture flasks.
A method to measure visible cell numbers involved staining with methylene blue (Sigma, St. Louis, Mo.) and reading the absorbance of the stain in solution after elution from the cells. […] The methylene blue staining solution was removed from the cultures and the culture plates were rinsed in several volumes of H^2O. The culture plates were allowed to air dry; this was followed by elution of the methylene blue stain from the fixed cells by incubation at controlled room temperature in a solution of PBS/50% ethanol and 1% acetic acid for 1 hour, with agitation. The absorbance of the methylene blue dye in solution was measured by an ELISA plate reader (Model EL311; Bio-Tek Instruments, Inc., Winooski, Vt.) at 630 nm. In all experiments described, calculation of cell numbers for each experimental data point was expressed as the average of three wells per experimental treatment (dilution, titer, or antiviral concentration).
The NCL cell line was grown to confluence and passaged to 96 well microtiter plates (Microtest™ 96; Becton Dickinson Labware, Franklin Lakes, N.J.), at a density of 2×10^4 cells/well (0.34 cm^2) and incubated for 1 hour to allow cell attachment. After attachment, the cells of one-half of each microtiter plate were inoculated with a cpBVDV stock diluted to yield a multiplicity of infection (m.o.i.) of 0.01 TCID50 and incubated for 3-6 hours to allow viral attachment and penetration. Following this incubation period, the inoculum was removed and replaced with fresh growth medium.
Three quarters of both cpBVDV infected and uninfected cells were grown in the presence of antiviral compound. The remaining quarter of the microassay plate served as positive (cpVDV infected) and negative (uninfected) control wells. The medium was changed daily and cell killing was measured by the methylene blue assay 3 days post-infection with BVDV.
The culture medium was collected on day 3 post-infection and the reduction in viral yield after antiviral treatment was determined. Supernatant collected from experimental wells was serially diluted ten-fold and used to infect newly prepared NCL cells. the end-point titer, the last dilution at which complete cell killing was evident, was determined in a similar 96 well format using the methylene blue assay for cell killing 5 days after infection.
Cell killing due either to viral infection or to drug cytotoxicity was calculated for each experimental data point and plotted. Regression analysis (curve fitting) was performed with SigmaPlot4.0 (Jandel Sci, San Rafael, Calif.) using the Regression Wizard library of equations which best fit the collected data.

Data set [17] deals with uninfected NCL cells. Kind of data set: Cytotoxicity toward uninfected NCL cells (methylene blue assay). Type of data set: cell-based, bovine. To be noted: Example 2B.
Description: A method to measure visible cell numbers involved staining with methylene blue (Sigma, St. Louis, Mo.) and reading the absorbance of the stain in solution after elution from the cells. […] The methylene blue staining solution was removed from the cultures and the culture plates were rinsed in several volumes of H^2O. […] The absorbance of the methylene blue dye in solution was measured by an ELISA plate reader (Model EL311; Bio-Tek Instruments, Inc., Winooski, Vt.) at 630 nm. In all experiments described, calculation of cell numbers for each experimental data point was expressed as the average of three wells per experimental treatment (dilution, titer, or antiviral concentration).
Three quarters of both cpBVDV infected and uninfected cells were grown in the presence of antiviral compound. […] The medium was changed daily and cell killing was measured by the methylene blue assay 3 days post-infection with BVDV.
Cell killing due either to viral infection or to drug cytotoxicity was calculated for each experimental data point and plotted. […]
In data set [18] the test system is WCH-8 cells. Kind of data set: Cytotoxicity in WCH-8 cells.
Excerpt: as §3
In data set [19] the test system is woodchuck primary hepatocytes. In words: Cytotoxicity in woodchuck primary hepatocytes.
Excerpt: as §3

Data on seven molecules can be found in patent US8445533B2, “Andrographolide derivatives to treat viral infections” (Cornell Research Foundation, Inc., priority 2004, dated 2013).

Values after ≈ are worked out from the molar mass of the structure shown. Where two headings read alike, the source gives them in different places. Bounds are passed on as bounds.

Chain of funin (P09958 108-794): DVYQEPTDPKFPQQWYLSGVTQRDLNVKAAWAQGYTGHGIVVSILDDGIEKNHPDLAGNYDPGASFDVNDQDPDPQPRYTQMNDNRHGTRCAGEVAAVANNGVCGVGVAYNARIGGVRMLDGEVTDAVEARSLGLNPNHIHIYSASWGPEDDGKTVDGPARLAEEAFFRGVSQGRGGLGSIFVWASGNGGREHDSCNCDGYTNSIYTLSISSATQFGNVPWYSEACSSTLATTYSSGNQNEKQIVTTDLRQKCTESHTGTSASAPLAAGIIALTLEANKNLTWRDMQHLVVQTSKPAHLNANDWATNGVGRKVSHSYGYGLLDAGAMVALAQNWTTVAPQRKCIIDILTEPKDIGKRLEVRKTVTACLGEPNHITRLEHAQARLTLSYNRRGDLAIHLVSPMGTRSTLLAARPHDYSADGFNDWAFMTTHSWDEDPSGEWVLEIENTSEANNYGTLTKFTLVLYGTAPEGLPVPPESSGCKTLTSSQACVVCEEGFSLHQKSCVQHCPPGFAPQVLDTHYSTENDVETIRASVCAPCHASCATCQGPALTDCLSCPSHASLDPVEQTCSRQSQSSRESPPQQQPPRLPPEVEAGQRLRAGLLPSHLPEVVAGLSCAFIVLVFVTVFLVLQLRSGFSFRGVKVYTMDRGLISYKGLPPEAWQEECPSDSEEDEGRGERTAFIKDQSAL

Broadly, the IC50 is the point on the concentration scale where inhibition reaches its midpoint. A high value points to weaker potency. For the molecule `C[C@@]1(O)[C@H](O)[C@@H](CO)O[C@H]1n1ccc(N)nc1=O` [2′-MeC, B-D-2′-methyl-cytidine], the EC50 in data set [1] worked out at 25.1 µM; in [2] it was 61.6 µM. The half-inhibitory concentration (IC50) in data set [3] and in data set [4] was more than 100 µM in each case.
Regarding `C=C1CCC2[C@](C)(CC[C@@H](O)[C@@]2(C)CO)C1/C=C/C1=CCOC1=O` (some centres unmarked) [14-deoxy-11,12-didehydroandrographolide], the cytotoxic activity entry in data set [5] is recorded as “no cytotoxic activity”.
`C=C1CC[C@@H]2[C@](C)(CO)[C@H](O)CC[C@@]2(C)[C@@H]1C/C=C1/C(=O)OC[C@H]1O` [Andrographolide]: the cytotoxic activity result in data set [6] and in data set [7] was “significant cytotoxic activity” throughout. For the same molecule, the “protective activity against paracetamol-induced toxicity” value in data set [8] is reported as “protective activity”. Further, the enzyme inhibition entry in data set [9], in data set [10] and in data set [11] was “relatively little enzyme inhibition” in each case.
Turning to `C=C1CC[C@@H]2[C@](C)(CO[C@@H]3O[C@H](CO)[C@@H](O)[C@H](O)[C@H]3O)CCC[C@@]2(C)[C@@H]1CCC1=CCOC1=O` [neoandrographolide], in data set [5] (tumor cell lines), the cytotoxic activity result is “no cytotoxic activity”.
For the molecule `NC(=O)c1ncn([C@@H]2O[C@H](CO)[C@@H](O)[C@H]2O)n1` [ribavirin, reference compound], the CC50 in [12] came out at 0.35 µg/mL (≈ 1.43 µM). For the same molecule, the tEC90 in data set [13] was 2.9 µg/mL. Besides, the EC50 in [14] (Bovine viral diarrhea virus isolates and strains, in Marmota monax, read-out: ckEC50) was 0.27 µg/mL (≈ 1.11 µM).
In the case of “dehydroandrographolide succinic acid monoester [DASM]”, in data set [15], the “minimal concentration inhibitory to HIV-1 (IIIB)” value is 1.6 to 3.1 pg/mL.
As for interferon-α, the “concentration range of reduction in viral-induced cell killing” value in data set [16] lay within 0.1 to 1000 ng/mL. The “maximal reduction in viral-induced cell killing” value in [16] was determined as 80%. Further, the “reduction in viral yields” value in data set [16] came to 2 logs. Moreover, the “S.I. (CC50/EC90)” value in [16] (bovine uterine cell line) came out at 6667. Further, the ckEC50 is 0.0074 ng/mL in data set [16] (bovine uterine cell line) and 288 ng/mL in data set [14] (WCH-8 cells). Also, the tEC90 in [16] (bovine uterine cell line) was found to be 0.15 ng/mL; in data set [16] (bovine uterine cell line, listed as IFN-α), 150 ng/mL; in data set [13], 0.825 µg/mL; in data set [14] (WCH-8 cells) it was 64 ng/mL. Besides, the CC50 entry in data set [17] (bovine uterine cell line), in data set [18] and in data set [19] was “≧1000 ng/ml” each time. For the same molecule, the “cytotoxicity, result in words” value in [17] (over the range tested) is listed as “did not exhibit cytotoxicity over the range tested”; in [18] (up to a dose of 1000 ng/ml), “No cytotoxicity was observed”; in data set [19] (over the range tested), “no cytotoxicity was observed over the range tested”.
